Measurements reported in patent publication US20110172217A1, “RING-FUSED MORPHOLINE DERIVATIVE HAVING PI3K-INHIBITING ACTIVITY” (Shionogi & Co., Ltd., priority 2008, published 2011).

Key:
PI-3 kinase γ [1] = target: T1, PI-3 kinase γ (Homo sapiens, UniProt P48736); assay: PI3Kγ inhibitory activity, PI3-kinase HTRF assay (inhibition ratio); assay type: biochemical; settings: 0.5 h, compound at 50 μmol/L
How it was run: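 Human PI3Kγ was preincubated 10 min with compound and PIP2 substrate, then reacted 30 min at room temperature with ATP (40 μmol/L in the added solution); EDTA/biotin-PIP3 quenched. HTRF 665/620 nm ratio read after 18 h, normalized to no-compound (100%) and no-enzyme (0%) controls, gave % inhibition at 50 or 10 μmol/L compound.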

PI-3 kinase γ [2] = target: T1, PI-3 kinase γ; assay: PI3Kγ inhibitory activity (Ki value); assay type: biochemical; settings: test ATP concentration 10 μmol/L
Description: The PI3Kγ inhibitory activity (Ki value) of a compound was evaluated according to the following procedure:
5 μL of a compound solution containing 10% DMSO and 200 μmol/L of a compound was changed to 5 μL of a compound solution containing 10% DMSO and either 200, 64, 20, 6.4, 2, 0.64, or 0.20 μmol/L of the compound (optionally, this is diluted to a lower concentration). Using a method similar to the method for measuring PI3Kγ inhibitory activity, inhibition ratios were measured in the presence of the compound at 50, 16, 5, 1.6, 0.5, 0.16, and 0.05 μmol/L (optionally, a lower concentration). Then an IC50 value was calculated by a logistic approximation method or the linear regression method using two concentrations that across 50% inhibition. Separately, the ATP concentration in the reaction solution (40 μmol/L ATP, 10 mmol/L MgCl2, 5 mmol/L DTT) at the time of the start of a reaction in the absence of the compound was changed to 80, 40, 20, 10, 5, 2.5, 1.25, or 0.625 μmol/L. Then, HTRF ratios were measured by a similar method. The value obtained by subtracting the HTRF ratio at each ATP concentration from the HTRF ratio in the absence of PI-3 kinase γ was defined as the value obtained by multiplying reaction rate (v) at each ATP concentration with a constant. The Michaelis-Menten constant Km was then calculated by the Lineweaver-Burk plot method. The Ki value of a compound was calculated by the following formula.
Ki=IC50 value/(1+10 μmol/L (test ATP concentration)/Km(μmol/L))

[3] = Metabolic stability test, pooled human liver microsome; assay type: in vitro ADME; settings: 2 μmol/L compound; human liver microsome 0.5 mg protein/mL, NADPH, 37° C.
Description: After a subject compound was reacted for a certain time using a commercially available pooled human liver microsome, a reacted sample and an unreacted sample are compared to calculate a survival ratio, and then the degree of metabolism in the liver was evaluated.
0.2 mL of a buffer solution (50 mmol/L of Tris-HCl in pH 7.4, 150 mmol/L of potassium chloride, and 10 mmol/L of magnesium chloride) containing a human liver microsome of 0.5 mg protein/mL was reacted in the presence of 1 mmol/L NADPH at 37° C. for 0 or 30 minutes (oxidative reaction). After reacting, 50 μL of the reaction solution was added to 100 μL of a solution of methanol/acetonitrile (1/1 (v/v)), mixed, and then centrifuged at 3000 rpm for 15 minutes. The test compound in the supernatant was quantitated with LC/MS/MS. The amount of the compound at a reaction time of 0 minute was defined as 100% and, based on that, the percentage of the test compound remained after reacting for 30 minutes was calculated.

[4] = target: T2, human ether-a-go-go related gene (hERG) channel (Homo sapiens, UniProt Q12809); assay: hERG test, whole-cell patch-clamp, IKr; assay type: cell-based; settings: 1 μmol/L compound; HEK293 cell expressing hERG
T2 construct: expressed in transfected cells; host or cells: HEK293
Source text: For the purpose of risk evaluation of QT interval extension of electrocardiogram, the activity on delayed rectification K^+ current (IKr), which plays an important role in a cardiac ventricle repolarization process, was examined using the HEK293 cell that was made to express human ether-a-go-go related gene (hERG) channel.
Using an automatic patch-clamp system (PatchXpress 7000A, Axon Instruments Inc.), by a whole-cell patch-clamp method, after the cell was maintained at a membrane potential of −80 mV, IKr induced upon applying depolarizing stimulation of +50 mV for 2 seconds and further applying repolarizing stimulation of −50 mV for 2 seconds was recorded. After generated electric current became stable, a test substance dissolved at an intended concentration in extracellular fluid (137 mmol/L NaCl, 4 mmol/L KCl, 1.8 mmol/L CaCl2.2H2O, 1 mmol/L MgCl2.6H2O, 10 mmol/L glucose, 10 mmol/L HEPES (4-(2-hydroxyethyl)-1-piperazineethanesulfonic acid), pH=7.4) was applied to the cell for 10 minutes under room temperature condition. From the obtained IKr, the absolute value of the maximum tail current was measured using analysis software (DataXpress ver. 1, Molecular Devices Corporation) and the value of the electric current in a maintained membrane potential as baseline. Moreover, an inhibition ratio for the maximum tail current prior to the application of the test substance was calculated and then compared with a group of media-application (0.1% dimethylsulfoxide solution) to evaluate influence of the test substance on IKr.

T1 sequence (P48736 whole entry): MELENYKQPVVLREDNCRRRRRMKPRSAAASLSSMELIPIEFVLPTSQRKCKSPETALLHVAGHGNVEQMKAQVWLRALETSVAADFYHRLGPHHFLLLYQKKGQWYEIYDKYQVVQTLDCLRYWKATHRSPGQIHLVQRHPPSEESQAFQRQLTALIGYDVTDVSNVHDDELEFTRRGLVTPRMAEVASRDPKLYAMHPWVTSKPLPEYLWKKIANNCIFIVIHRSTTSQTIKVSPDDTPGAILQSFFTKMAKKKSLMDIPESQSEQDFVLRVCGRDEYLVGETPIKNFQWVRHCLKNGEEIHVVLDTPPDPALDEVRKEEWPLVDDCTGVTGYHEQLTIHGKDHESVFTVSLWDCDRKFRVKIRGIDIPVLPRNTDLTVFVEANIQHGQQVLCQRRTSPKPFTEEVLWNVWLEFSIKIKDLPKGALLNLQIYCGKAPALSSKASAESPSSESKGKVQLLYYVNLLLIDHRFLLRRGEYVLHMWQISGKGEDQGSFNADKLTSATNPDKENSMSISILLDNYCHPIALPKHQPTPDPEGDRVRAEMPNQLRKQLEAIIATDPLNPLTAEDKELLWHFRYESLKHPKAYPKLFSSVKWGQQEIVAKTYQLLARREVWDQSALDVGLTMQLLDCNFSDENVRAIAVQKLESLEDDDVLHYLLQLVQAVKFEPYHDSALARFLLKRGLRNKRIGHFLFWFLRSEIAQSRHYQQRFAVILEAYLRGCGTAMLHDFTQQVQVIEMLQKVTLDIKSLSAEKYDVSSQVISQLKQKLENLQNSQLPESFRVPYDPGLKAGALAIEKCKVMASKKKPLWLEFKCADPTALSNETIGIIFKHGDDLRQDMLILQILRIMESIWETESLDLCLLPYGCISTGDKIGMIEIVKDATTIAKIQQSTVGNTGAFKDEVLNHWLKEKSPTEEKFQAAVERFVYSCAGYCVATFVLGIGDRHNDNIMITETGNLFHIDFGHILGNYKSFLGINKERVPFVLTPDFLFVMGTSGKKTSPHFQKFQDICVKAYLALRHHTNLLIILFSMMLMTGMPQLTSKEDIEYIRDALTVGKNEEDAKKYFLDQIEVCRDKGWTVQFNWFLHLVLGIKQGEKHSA
T2 sequence (Q12809 whole entry): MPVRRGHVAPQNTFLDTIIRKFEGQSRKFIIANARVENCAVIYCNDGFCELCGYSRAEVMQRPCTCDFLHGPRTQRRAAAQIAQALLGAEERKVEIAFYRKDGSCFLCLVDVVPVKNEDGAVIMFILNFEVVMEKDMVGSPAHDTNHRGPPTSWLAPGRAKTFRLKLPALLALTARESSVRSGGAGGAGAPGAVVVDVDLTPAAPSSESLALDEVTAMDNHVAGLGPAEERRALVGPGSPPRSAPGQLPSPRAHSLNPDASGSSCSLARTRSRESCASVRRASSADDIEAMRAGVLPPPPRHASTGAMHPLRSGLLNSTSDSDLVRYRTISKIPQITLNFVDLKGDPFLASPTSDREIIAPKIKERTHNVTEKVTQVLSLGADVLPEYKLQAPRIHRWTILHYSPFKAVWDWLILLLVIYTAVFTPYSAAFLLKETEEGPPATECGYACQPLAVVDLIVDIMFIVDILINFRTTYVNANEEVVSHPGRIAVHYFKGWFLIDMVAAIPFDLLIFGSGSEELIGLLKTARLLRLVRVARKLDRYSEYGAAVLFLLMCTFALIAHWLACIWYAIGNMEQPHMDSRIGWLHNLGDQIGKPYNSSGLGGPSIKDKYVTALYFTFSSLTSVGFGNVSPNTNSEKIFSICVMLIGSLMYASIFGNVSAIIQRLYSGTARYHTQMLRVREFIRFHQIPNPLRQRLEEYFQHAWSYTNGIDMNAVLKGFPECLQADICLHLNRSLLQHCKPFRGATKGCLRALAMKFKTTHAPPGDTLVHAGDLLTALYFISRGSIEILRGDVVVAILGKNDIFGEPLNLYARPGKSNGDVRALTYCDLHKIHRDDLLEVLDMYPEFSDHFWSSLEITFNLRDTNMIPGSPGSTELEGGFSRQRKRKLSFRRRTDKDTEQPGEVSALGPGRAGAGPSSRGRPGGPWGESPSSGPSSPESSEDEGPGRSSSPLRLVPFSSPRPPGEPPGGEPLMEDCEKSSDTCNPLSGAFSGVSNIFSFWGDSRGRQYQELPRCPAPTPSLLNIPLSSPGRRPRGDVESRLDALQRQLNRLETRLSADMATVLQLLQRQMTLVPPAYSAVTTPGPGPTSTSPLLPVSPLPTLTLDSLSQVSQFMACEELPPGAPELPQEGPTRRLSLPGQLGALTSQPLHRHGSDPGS

Compound	inhibition at 50 µM (PI-3 kinase γ [1]) [%]	Ki (PI-3 kinase γ [2]) [µM]	percentage of test compound remained after reacting for 30 minutes [3] [%]	hERG inhibition ratio for the maximum tail current (IKr) [4] [%]
O=C(O)c1ccccc1Nc1ccc2c(n1)N(C(=O)Nc1ccccc1)CCO2 [Compound I-145]	81	0.044	88.4	15
O=C(O)COc1cccc(Nc2ccc3c(n2)N(C(=O)Nc2ccccc2)CCO3)c1 [Compound I-240]	≥ 95	0.048	89.9	
